Experimental data as given in US11337984B2, “Methods for treating, diagnosing and prognosing a haematological malignancy” (Institut de Recerca Contra La Leucèmia Josep Carreras, priority 2014, dated 2022).
“Also recorded” adds a separate entry of the source.

Legend:
primary AML blasts = experiment: Cell viability of primary patient AML samples (bulk and CD34+CD38- primitive population); assay type: cell-based, human; conditions: 0.1, 1 and 10 μM, 24 and 72 h
Description: FIG. 3. […] The primitive AML population was identified within the AML bulk population based on their positivity to CD34 and negativity to CD38. […] Cell number was calculated by volumetric count. 11 primary AML samples were analyzed in triplicates. Each symbol represents a specific AML patient.
FIG. 4. […] The primitive AML population was identified within the AML bulk population based on their positivity to CD34 and negativity to CD38. […] Cell number was calculated by volumetric count. 11 primary AML samples were analyzed in triplicates. Each symbol represents a specific AML patient.
Primary AML patient samples were treated with subtype 1 and 2 HTR antagonists for 24 and 72 h at 0.1, 1 and 10 μM. Five hundred thousand cells per mL were seeded in IMDM supplemented with insulin, transferrin, bovine serum albumin, IL3 and non-essential aminoacids. Cell viability was measured by flow cytometry as described above.
Like the normal haematopoietic system, AML is thought to be organized as a hierarchy of distinct and functionally heterogeneous classes of cells that is ultimately sustained by a small number of leukaemic stem cells (LSCs) with enhanced self-renewal capacity, impaired differentiation ability, and increase drug resistance (Bonnet and Dick Nat Med. 1997; 3(7):730-7). The LSC population is found enriched inside the CD34+CD38− AML blast population.

[1] = test system: HL-60, KG-1, MonoMac-1 and Kasumi-1 AML cell lines; experiment: Differentiation-associated surface markers on AML cell lines by flow cytometry; assay type: cell-based, human; conditions: 0.1, 1 and 10 μM, 72 h; all AML cell lines
Description: FIG. 5. […] The surface expression of CD11c, CD11b and CD14 was detected by flow cytometry. […] MFI: Mean Fluorescence Intensity.
HL-60, KG-1, MonoMac-1 and Kasumi-1 AML cell lines were treated with Apomorphine and Methiothepin at different concentrations for 72 h as described above. The expression of differentiation-associated surface markers was measured by flow cytometry.

[2] = test system: primary AML patient samples; experiment: Myeloid differentiation markers on primary patient AML samples; assay type: cell-based, human; conditions: 0.1, 1 and 10 μM, 72 h
Description: FIG. 6. […] The surface expression of CD11b, CD14 and CD15 was detected by flow cytometry. […] 9 primary AML samples were analyzed in triplicates. Each symbol represents a specific AML patient.
FIG. 7. […] The surface expression of CD11b, CD14 and CD15 was detected by flow cytometry. […] 9 primary AML samples were analyzed in triplicates. Each symbol represents a specific AML patient.

[3] = test system: healthy haematopoietic stem/progenitor cells; experiment: Clonogenic capacity of lineage-depleted umbilical cord blood cells; assay type: cell-based, human; conditions: 10 μM for 18 h, then 14 days in methylcellulose
Description: FIG. 11. […] Cells were then cultivated in Methylcellulose supplemented with haematopoietic cytokines for 14 days. The number of colonies obtained was measured by microscopy based on morphological criteria. A. Total number of colonies is represented. CFU: colony-forming units. B. Frequency of each colony subtype is shown (CFU-Mix, Mix lineaged colony; CFU-GM, granulo-monocyte colony; CFU-G, granulocyte colony; CFU-M, monocyte colony; BFU-E erythrocyte blast colony). 4 primary umbilical cord blood samples were analyzed.
Next, lineage-depleted umbilical cord blood cells were treated with Apomorphine or Methiothepin as done above for AML cells. 14 days after plating, colonies were counted by light microscopy based on morphology and cellularity.

[4] = test system: primary CFU-Bs from AML patients; experiment: Secondary CFU replating of pretreated primary AML CFU-Bs; assay type: cell-based, human; conditions: primary CFUs pretreated with 10 μM, replated 14 days without drug
[5] = test system: primary AML patient cells; experiment: Engraftment of ex vivo treated primary AML cells in NSG mice; design: species or system mouse; conditions: ex vivo 10 μM for 18 h; bone marrow 8 weeks after transplantation; versus vehicle
Description: (§1) FIG. 16. 5HTR antagonist treatment reduces the leukemia regeneration capacity of primary AML cells, whilst sparing healthy hematopoietic stem/progenitor cells. 1-10×10^6 primary AML patient cells or 10-14×10^4 lineage-depleted CB cells were ex vivo treated (10 μM apomorphine, 10 μM methiothepin or vehicle control) for 18 h in IMDM supplemented with 5% heat-inactivated fetal bovine serum and hematopoietic cytokines. Cells were injected IV in previously busulfan (30 mg/kg)-conditioned NSG mice and left 8 weeks untreated. Mice were sacrificed and their bones (iliac crests, femurs and tibias) were harvested and analyzed for the presence of human leukemia (upper panel) or healthy blood (lower panel) cells by flow cytometry. Four AML patient samples and three umbilical cord blood (UCB) samples were tested. *p<0.05; **p<0.01.
(§2) Leukemia-initiating cells (LIC) or LSCs are responsible for the engraftment of AML cells in xenograft mouse models and are thought to initiate and maintain the disease in humans. Primary AML patient samples were treated ex vivo with 5HTR antagonists for 18 h and transplanted into conditioned immunodeficient NSG mice. Eight weeks after transplantation, murine bone marrow was analyzed for the presence of human AML cells.

[6] = test system: lineage-depleted UCB cells; experiment: Engraftment of ex vivo treated lineage-depleted UCB cells in NSG mice; design: species or system mouse; conditions: ex vivo 10 μM for 18 h; 8 weeks after transplantation
Description: as §1, §2

AML cells = experiment: CFU assay of engrafted AML samples; assay type: cell-based; conditions: engrafted human cells from primary transplanted mice
Description: (§3) FIG. 17. Treatments with 5HTR antagonists reduce the leukemia regeneration capacity of primary AML samples in secondary recipient, without affecting normal hematopoiesis. Upper panel. 3-10×10^5 engrafted bone marrow cells from primary transplanted mice were injected intravenously into secondary recipients (conditioned NSG mice) and left untreated for 8 weeks. Bone marrow cells were analyzed as in FIG. 16. Frequency of human CD45 positive cells referred to control is represented. Lower panel. 50×10^3 engrafted human cells were screened for CFUs. The normalized number of CFUs obtained is represented. *p<0.05; ***p<0.005; ****p<0.0001.
(§4) In order to assay the in vivo self-renewal capacity remaining in the engrafted samples, secondary transplants were performed. Less than 35% of AML cells were detected in mice injected with apomorphine- or methiothepin-treated cells (FIG. 17).

engrafted healthy HSCs = experiment: CFU assay of engrafted healthy HSCs; assay type: cell-based; conditions: engrafted human cells from primary transplanted mice
Description: as §3, §4

In the case of CN1CCc2cccc3c2[C@H]1Cc1ccc(O)c(O)c1-3 [Apomorphine, (6aR)-6-methyl-5,6,6a,7-tetrahydro-4H-dibenzo[de,g]quinoline-10,11-diol], the “cell death on primary AML blasts” value (primary AML blasts; bulk population) is reported as “induced cell death on primary AML blasts in a dose-response fashion”, the “cell viability of the most primitive LSC-enriched blast population” value (primary AML blasts; CD34+CD38- population) is reported as “reduced cell viability” and the “expression of differentiation-associated surface markers CD11c, CD11b and CD14” value [1] is reported as “induced the expression of CD11c, CD11b and CD14”. The “myeloid markers (CD11b, CD14, CD15) on primary AML patient samples” value [2] was “induced the upregulation of myeloid markers; also recorded: induced myeloid differentiation”, the “clonogenic capacity of healthy haematopoietic stem/progenitor cells (total colonies, frequency of CFU subtypes)” value [3] was “None of the 5HTR antagonists affected the clonogenic capacity” and the “clonogenic capacity in secondary CFUs” value [4] was “a reduction in the clonogenic capacity was observed”. For the same molecule, the “homing and engraftment capacity of treated AML cells” value [5] was “less homing and engraftment capacity”, the “normal hematopoietic regeneration capacity of lineage-depleted UCB cells” value [6] was “negligible effect” and the “clonogenic capacity of engrafted AML samples (CFU assays)” value (AML cells) was “significantly reduced”. For the same molecule, the “clonogenic capacity of engrafted healthy HSCs (CFU assays)” value (engrafted healthy HSCs) was “little effect”.
